Laboratory results taken from patent US11884686B2, “Chelate compounds” (priority 2016, dated 2024).
Entries after “also recorded” stand apart in the source; their conditions may differ.

Experiments:
[1] = Dissociation kinetics via Cu2+ transmetallation (UV-Vis absorbance); assay type: physicochemical; settings: for overall kinetic inertness: Cu2+ and Zn2+ transmetallation, all experimental conditions; for nature of the kinetic dissociation curve, Cu2+ exchange: UV-Vis absorbance at 300 nm, all pH and Cu2+ concentrations assessed; for kobs1 / kobs2: 25° C., 0.2 mM chelate; for conversion of Mn chelate during transmetallation: competing Cu2+, FIGS. 9 and 10
Description: (§1) Kinetic inertness was evaluated at slightly acidic pH due to the slow rate of dissociation of the paramagnetic complex at physiological pH and to the potential hydrolysis of the metal ions at the concentrations used for the experiments and at pH values close to physiological.
The dissociation kinetics of the prior art Mn Chelate, Mn Chelate 4 and Mn Chelate 3 at a concentration of 0.2 mM was assessed via Cu^2+ transmetallation recording the time-dependent change of the UV-Vis absorbance in the presence of an excess of competing metal ion (10 and 40 equivalents of Cu^2+); at 25° C. and different pH (pH: 5.0; 5.2; 5.4). For all assessments, the reaction mixture contained 0.15 M NaCl; 50 mM NMP. The ? for the acquisition of the UV-Vis spectra was selected based on the difference between the observed absorbance for the Mn(II) based chelates (e.g., prior art Mn Chelate, Mn Chelate 3 and Mn Chelate 4) and the newly formed Cu^2+-complex in order to have the best differentiation between the two chemical species. The UV-Vis spectra were acquired at ? =300 nm on a Perkin-Elmer Lambda 19 spectrophotometer. Indeed, the displacement of Mn(II) ion induced by Cu^2+ led to an increase of the observed absorbance at ? =300 nm for all Mn(II) based chelates in all experimental conditions. This increase is due the formation of the Cu^2+-complex.
(§2) For any of the transmetallation experiments carried out with the prior art Mn Chelate (e.g., at different pH; different Zn^2+ or Cu^2+ concentration) it was evident that the variation of the relaxation rate T1 (for the Zn^2+-exchange; FIG. 4) or the variation of the UV-Vis absorbance (for the Cu^2+-exchange; FIG. 5) caused by competing metal ion was a “single phase” process better described as a mono-exponential function. […] The rate of dissociation described by kobs was calculated via equation (1) where [MnL]tot is the total concentration of Mn(II) based chelates and t is the observation time.
These biphasic kinetic curves could be mathematically well fitted with the biexponential equation (2) where A is the observed absorbance; b, A1 and A2 are constants specific for the biphasic dissociation process for a Mn(II) based chelate; kobs1 and kobs2 are the rate constants describing the biphasic dissociation and t is the observation time. A=b−A1e^−k^obs1^t−A2e^−k^obs2t (Equation 2)
The rates of the biphasic dissociation for Mn Chelate 3 and Mn Chelate 4 described by kobs1 and kobs2 and of the monophasic dissociation for the prior art Mn Chelate described by kobs were calculated via equation (2) and (1) respectively for the different experimental conditions utilized in the set of experiments.
From the qualitative comparison of the kinetic curves and preliminary kobs it was evident that Mn Chelate 3 and Mn Chelate 4 dissociate with a different mechanism described by a biexponential function and at a slower rate compared to the prior art Mn Chelate. To quantitatively compare the kinetic inertness of these Mn(II) based chelates, the direct comparison of the evolution of the UV-Vis absorbance at 300 nm was recorded for the Cu^2+ exchange reaction. Direct comparison of the UV-Vis absorbance allowed quantification of the conversion of the Mn(II) based chelates into Cu^2+ based chelates during the transmetallation reaction which can be correlated to the kinetic inertness of the Mn(II) complex. The “conversion” was calculated following equation (3), where At is the absorbance at a time t (or end of the reaction), A0 is the absorbance at time zero (or beginning of the acquisition) and Aeq is the absorbance at the equilibrium.

[2] = Dissociation kinetics via Zn2+ transmetallation (T1 relaxation time); assay type: physicochemical; settings: for nature of the kinetic dissociation curve, Zn2+ exchange: time dependent T1, 25° C., pH 5.1-5.7
Description: as §1
The dissociation kinetics of Mn(II) based chelates (concentration 1 mM) of the invention was assessed via Zn^2+ transmetallation recording the time-dependent variation of the longitudinal relaxation time (i.e., T1). The assessment was completed in a set of experiments including for the prior art Mn Chelate different concentrations of competing metal ion (5, 10, 20, 40 equivalents of Zn^2+); at 25° C. and different pH (pH: 5.1; 5.4; 5.7). The dissociation kinetics for Mn Chelate 4 (concentration 1 mM) was assessed in the presence of 5 eq of Zn^2+ at 25° C. and pH 5.1 and 5.7. For both assessments, the reaction mixture contained 0.15 M NaCl and 50 mM N-methyl piperazin buffer (i.e., NMP). The longitudinal relaxation time changes were monitored at 1 MHz for the prior art Mn Chelate and at 0.01 MHz for Mn Chelate 4. Indeed, the release of the free Mn^2+ ion induced by Zn^2+ leads to a decrease of the relaxation time for both Mn(II) based chelates evaluated in all experimental conditions. […]
as §2

Row | Compound | overall kinetic inertness [1] | nature of the kinetic dissociation curve, Cu2+ exchange [1] | kobs1 ([1]; pH = 5.0, CCu2+ 0.002 M) | kobs2 ([1]; pH = 5.0, CCu2+ 0.002 M) | kobs1 ([1]; pH = 5.0, CCu2+ 0.008 M) | kobs2 ([1]; pH = 5.0, CCu2+ 0.008 M) | kobs1 ([1]; pH = 5.2, CCu2+ 0.002 M) | kobs2 ([1]; pH = 5.2, CCu2+ 0.002 M) | conversion of Mn chelate during transmetallation [1] | kobs1 ([1]; pH = 5.4, CCu2+ 0.002 M) | kobs2 ([1]; pH = 5.4, CCu2+ 0.002 M) | kinetic inertness from conversion, Zn2+ transmetallation ([2]; FIG. 11, versus prior art Mn Chelate) | nature of the kinetic dissociation curve, Zn2+ exchange [2]
1 | CN(C[C@H](O)[C@@H](O)[C@H](O)[C@H](O)CO)C(=O)CCCN1CCN2Cc3cccc(n3)CN(CC1)C(CCC(=O)N(C)C[C@H](O)[C@@H](O)[C@H](O)[C@H](O)CO)C(=O)[O][Mn][O]C(=O)C2CCC(=O)N(C)C[C@H](O)[C@@H](O)[C@H](O)[C@H](O)CO (stereo partly shown) [Mn Chelate 3] | evident improvement in overall kinetic inertness | biphasic nature | 0.483 min⁻¹ | 0.0023 min⁻¹ | 0.378 min⁻¹ | 0.0024 min⁻¹ | 0.303 min⁻¹ | 0.0015 min⁻¹ | – | – | – | – | –
2 | CN1CCN2Cc3cccc(n3)CN(CC1)C(CCC(=O)N(C)C[C@H](O)[C@@H](O)[C@H](O)[C@H](O)CO)C(=O)[O][Mn][O]C(=O)C2CCC(=O)N(C)C[C@H](O)[C@@H](O)[C@H](O)[C@H](O)CO (stereo partly shown) [Mn Chelate 4] | evident improvement in overall kinetic inertness; also recorded: most kinetically inert compound examined | biphasic nature | 0.340 min⁻¹ | 0.0013 min⁻¹ | 0.190 min⁻¹ | 0.0009 min⁻¹ | 0.240 min⁻¹ | 0.0009 min⁻¹ | dissociates even slower | 0.201 min⁻¹ | 0.001 min⁻¹ | superior kinetic inertness | biphasic behaviour
3 | CN1CCN2CC(=O)[O][Mn][O]C(=O)CN(CC1)Cc1cccc(n1)C2 [Prior Art Mn Chelate, reference compound] | – | single phase | 0.034 min⁻¹ | – | 0.035 min⁻¹ | – | 0.022 min⁻¹ | – | reaches a full conversion at much shorter time point than Mn Chelate 3 | 0.017 min⁻¹ | – | – | single phase
